Assay [1] deals with T1, Polyunsaturated fatty acid 5-lipoxygenase (Homo sapiens, UniProt P09917).
T1 sequence (P09917 whole entry): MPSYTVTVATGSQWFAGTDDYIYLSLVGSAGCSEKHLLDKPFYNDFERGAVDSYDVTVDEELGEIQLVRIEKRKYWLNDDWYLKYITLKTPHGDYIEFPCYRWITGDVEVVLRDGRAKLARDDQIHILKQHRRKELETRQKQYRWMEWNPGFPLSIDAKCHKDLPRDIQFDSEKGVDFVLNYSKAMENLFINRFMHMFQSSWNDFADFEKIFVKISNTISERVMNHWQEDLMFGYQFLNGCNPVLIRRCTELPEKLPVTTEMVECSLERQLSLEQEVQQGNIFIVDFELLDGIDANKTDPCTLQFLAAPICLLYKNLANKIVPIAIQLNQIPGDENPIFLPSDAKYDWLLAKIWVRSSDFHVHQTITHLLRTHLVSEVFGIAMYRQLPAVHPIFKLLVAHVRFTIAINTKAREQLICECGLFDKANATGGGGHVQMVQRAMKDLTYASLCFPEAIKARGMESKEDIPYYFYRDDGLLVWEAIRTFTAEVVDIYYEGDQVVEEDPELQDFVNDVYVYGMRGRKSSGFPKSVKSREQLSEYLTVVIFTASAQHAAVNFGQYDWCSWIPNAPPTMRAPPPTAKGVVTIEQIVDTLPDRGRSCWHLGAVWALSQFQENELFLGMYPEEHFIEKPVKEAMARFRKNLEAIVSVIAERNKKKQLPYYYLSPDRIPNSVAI
Nature of the assay: Inhibition of 5-LO (unknown origin).

The target of assay [2] is Cyclooxygenase (Homo sapiens, UniProt P35354+P23219). In words: Inhibition of CO (unknown origin).
For assay [3], the species on record is Mus musculus. Nature of the assay: Anticonvulsant activity in mouse assessed as protection against shock-induced seizures by MES test. The class given is functional.
Assay [4] is filed under the species Mus musculus. Nature of the assay: Anticonvulsant activity in mouse by MES test. Format: functional.
Assay [5] deals with Helicobacter pylori. Nature of the assay: Antimicrobial activity against Helicobacter pylori at 1 ug/disc. Format: functional. Conditions: read-out: IZ.
In assay [6] the test system is Helicobacter pylori. Nature of the assay: Antimicrobial activity against Helicobacter pylori by disc diffusion method. The class given is functional. On the technique in general: Agar diffusion results depend on both activity and mobility in agar.
Assay [7] has as its system Helicobacter pylori. In words: Potency index, ratio of IZ for compound to IZ for metronidazole against Helicobacter pylori by disc diffusion method. The class given is functional.
Assay [8] has as its target Carbonic anhydrase 1 (Homo sapiens, UniProt P00915). Nature of the assay: Inhibition of human carbonic anhydrase 1.
Assay [9] deals with Carbonic anhydrase 2 (Homo sapiens, UniProt P00918). Nature of the assay: Inhibition of human carbonic anhydrase 2.
For assay [10], the target named is Carbonic anhydrase (Bos taurus, UniProt P00921+Q95323+P18915+Q3SZX4). In words: Inhibition of bovine carbonic anhydrase 5. Format: protein assay.
The target of assay [11] is Carbonic anhydrase 9 (Homo sapiens, UniProt Q16790). In words: Inhibition of human carbonic anhydrase 9.
The test system of assay [12] is Human immunodeficiency virus 1. In words: Antiviral activity against HIV1 3B by MTT assay. The class given is functional, organism-based. Conditions: Human immunodeficiency virus 1, 3B. (Tetrazolium assays rely on reduction of a dye to a coloured formazan, in cell work by metabolically active cells.)
Assay [13] deals with Human immunodeficiency virus 2. Nature of the assay: Antiviral activity against HIV2 ROD by MTT assay. Format: functional, organism-based. Conditions: Human immunodeficiency virus 2, ISOLATE ROD.
Assay [14] concerns Human immunodeficiency virus 1. In words: Antiviral activity against HIV1 infected in human MT4 cells. Conditions: Human immunodeficiency virus 1, MT4. The class given is functional, organism-based.
Assay [15] concerns Human immunodeficiency virus 2. Nature of the assay: Antiviral activity against HIV2 infected in human MT4 cells. The class given is functional, organism-based. Conditions: Human immunodeficiency virus 2, MT4.

Converted amounts (≈) assume the structure as drawn.

Chain of Carbonic anhydrase 1 (P00915 whole entry): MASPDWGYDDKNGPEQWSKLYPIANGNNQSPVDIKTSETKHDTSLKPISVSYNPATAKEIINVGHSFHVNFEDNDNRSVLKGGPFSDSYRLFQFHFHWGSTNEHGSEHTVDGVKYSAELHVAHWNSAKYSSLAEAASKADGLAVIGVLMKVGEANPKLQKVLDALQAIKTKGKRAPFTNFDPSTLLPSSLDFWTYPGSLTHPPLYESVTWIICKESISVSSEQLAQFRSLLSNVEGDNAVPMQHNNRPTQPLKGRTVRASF

The IC50 is the concentration at which inhibition is half-maximal. The low end stands for greater potency in that assay, the high end for weaker potency in that assay. As to `CC(C)(C)c1cc(-c2n[nH]c(=S)s2)cc(C(C)(C)C)c1O.C[N+](C)(C)CCO`, the results for the IC50 in assay [1] and in assay [2] were 2800 nM and 800 nM, respectively.

As for `Clc1ccc(Nc2nnc(-c3ccncc3)s2)cc1`, the Activity in assay [3] is given as 100%.

As usually defined, the ED50 is the dose that gives a 50% effect, or the effect in half of the subjects. The low end stands for an effect at a small dose, the high end for a need for a large dose. As for `CNc1nnc(-c2ccccc2-c2ccccc2)s1`, it took a dose of 18 mg/kg to reach the 50% effect level in [4] (ED50).

In the case of `Cn1c([N+](=O)[O-])cnc1-c1nnc(S)s1`, the zone of inhibition at 1 µg/disc in assay [5] is 7.7 mm.

Regarding `CC1CN(c2nnc(-c3ncc([N+](=O)[O-])n3C)s2)CC(C)N1` (centres undefined), the “inhibition zone (IZ)” value in assay [6] is 30.9 mm. For the same compound, the “fold change (FC)” value in assay [7] is recorded as 5.

One may read the Ki as a measure of affinity in units of concentration, obtained from inhibition or displacement. Low values mean higher affinity, high ones lower affinity. Regarding `NS(=O)(=O)c1nnc(NS(=O)(=O)c2ccc(-[n+]3ccccc3)cc2)s1`, the Ki in assay [8] amounted to 3 nM; in assay [9] it was 0.2 nM; in [10], 2 nM; in [11], 6 nM.

What is called EC50 is the concentration at which the effect is half-maximal. The low end stands for an effect from little substance, the high end for a need for much substance. Consider `O=C(COc1ccc2ccccc2c1)NCc1nnc(Nc2ccccc2)s1`, for which the EC50 in assay [12] and in [13] was 0.961 µg/mL (≈ 2.46 µM) in each case.

`c1ccc(C2=Nn3cnnc3SC2)cc1`: the EC50 in assay [14] and in assay [15] was 1.97 µg/mL (≈ 9.11 µM) each time.

As to `Cc1ccc(S(=O)(=O)NCc2nnc(Nc3ccc(Cl)cc3)s2)cc1`, the results for the EC50 in assay [14] and in assay [15] were 23.9 µg/mL (≈ 60.5 µM) and 9.9 µg/mL (≈ 25.1 µM), respectively.

`Cc1ncc([N+](=O)[O-])n1CCO` [METRONIDAZOLE]: the zone of inhibition at 1 µg/disc in [5] worked out at 16.3 mm. For the same compound, in [6], the “inhibition zone (IZ)” value is 6 mm.

Values taken from ChEMBL document CHEMBL3407389, “1,3,4-Thiadiazoles: a potent multi targeted pharmacological scaffold” (Eur J Med Chem, 2015).
